Assay results reported in ChEMBL document CHEMBL4393661, “PRODRUGS FOR NITROREDUCTASE BASED CANCER THERAPY- 2: Novel amide/Ntr combinations targeting PC3 cancer cells” (Eur J Med Chem, 2019).

Target: T1, Putative nitroreductase (Staphylococcus saprophyticus subsp. saprophyticus (strain ATCC 15305 / DSM20229 / NCIMB 8711 / NCTC 7292 / S-41)) (UniProt Q4A0P1)
T1 sequence (whole entry): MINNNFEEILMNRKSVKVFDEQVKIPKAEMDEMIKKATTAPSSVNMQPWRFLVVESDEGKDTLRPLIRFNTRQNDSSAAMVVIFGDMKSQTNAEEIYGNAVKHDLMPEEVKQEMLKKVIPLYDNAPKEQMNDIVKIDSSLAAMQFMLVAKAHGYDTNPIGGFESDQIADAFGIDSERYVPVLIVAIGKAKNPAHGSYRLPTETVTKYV
Experiment: Substrate activity at Staphylococcus saprophyticus nitroreductase assessed as ratio of Kcat/Km up to 80 mM using NADH as cofactor relative to CB1954/NfsB

| SMILES | fold change (FC) |
| --- | --- |
| NC(=O)c1cc(N2CC2)c([N+](=O)[O-])cc1[N+](=O)[O-] | 0.38 |
| CCN(C(C)=O)c1cc([N+](=O)[O-])cc([N+](=O)[O-])c1 | 20.9 |
| NC(=O)c1cc(N(CCCl)CCCl)c([N+](=O)[O-])cc1[N+](=O)[O-] | 1.67 |
| CC(=O)Nc1cc([N+](=O)[O-])cc([N+](=O)[O-])c1 | 17.6 |
